In patent publication US10457707B2, “Substituted urea depsipeptide analogs as activators of the CLPP endopeptidase” (priority 2015, dated 2019):
Converted amounts (≈) assume the structure as drawn. *1 amine or outer side, *2 acyl side, *3 side chain or, on linkers, in order; H or OH if unused. Where a SMILES comes first, the peptide text is derived from it. Bridges are numbered along the chain shown (N, C = ends). [ ]: non-standard residue; d: D form. The star is where a group is joined. Phe(3,5-F2) = N[C@@H](Cc1cc(F)cc(F)c1)C(=O)O; NH(4-OCF3-phenyl) = FC(F)(F)Oc1ccc(N*)cc1; Pro(4S-Me) = C[C@@H]1CN[C@H](C(=O)O)C1; NMeaThr = CN[C@H](C(=O)O)[C@H](C)O; aThr = C[C@H](O)[C@H](N)C(=O)O; CO = O=C([*:1])[*:2]

How the values were obtained:
Format in all cases: cell-based
[1] = tested on: Staphylococcus aureus, USA 300 wherein ClpP is inactivated; assay: Minimal inhibitory concentration assay
Method in brief: (§1)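 MIC is the lowest concentration stopping visible growth after overnight aerobic culture at 37 °C, per CLSI microbroth dilution (about 10^5 cfu/mL; two-fold series, top final 200 μM). ClpP-inactivated S. aureus USA 300 tested alongside parent strain to probe ClpP-mediated killing.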

[2] = tested on: Staphylococcus aureus, USA 300; assay: Minimal inhibitory concentration assay; settings: USA300, read-out: Minimal Inhibitory Concentrations S. aureus USA 300
Method in brief: as §1

[3] = Cytotoxicity assay (CellTiter-Glo cell viability, 72 hours); settings: African green monkey
Method in brief: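 Viability measured by CellTiter-Glo luminescence after 72-hour compound exposure (serial dilutions, DMSO control) of Vero monolayers seeded at 5000 cells/well in 10% FBS DMEM. IC50 values are the range of two biologically independent experiments, each run in duplicate.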

[4] = tested on: Enterococcus faecalis, ATCC 33186; assay: Minimal inhibitory concentration assay (microbroth dilution); settings: Enterococcus faecalis, ATCC33186; read-out: Minimal Inhibitory Concentrations E. faecalis ATCC 33186
Method in brief: as §1

In the case of `C[C@H]1C[C@H]2C(=O)O[C@@H](C)[C@H](NC(=O)[C@H](Cc3cc(F)cc(F)c3)NC(=O)Nc3ccc(OC(F)(F)F)cc3)C(=O)N3CCC[C@H]3C(=O)N(C)[C@@H]([C@H](C)O)C(=O)N[C@@H](C)C(=O)N2C1` [Compound 203, (S)-3-(3,5-difluorophenyl)-N-((2S,6S,9S,11aS,17S,18S,20aS)-9-((S)-1-hydroxyethyl)-2,6,10,18-tetramethyl-5,8,11,16,20-pentaoxohexadecahydro-1H,5H,16H-dipyrrolo[2,1-c:2′,1′-l][1]oxa[4,7,10,13]tetraazacyclohexadecin-17-yl)-2-(3-(4-(trifluoromethoxy)phenyl)ureido)propanamide] ({NH(4-OCF3-phenyl)-CO}-[Phe(3,5-F2)][aThr]P[NMeaThr]A[Pro(4S-Me)]; ester 2-C), the “Minimal Inhibitory Concentrations S. aureus USA 300 ΔClpP” value [1] is reported as 50 µM, the MIC [2] is reported as 0.098 µM (≈ 0.0864 µg/mL) and the IC50 at 72 h [3] is reported as 25.4 ± 1.8 µM. It also gave an MIC [4] of 0.781 µM (≈ 0.689 µg/mL).
